# Test results: patent US11370776B2, “Sulfonylureas and sulfonylthioureas as NLRP3 inhibitors” (Inflazome Limited, priority 2017, dated 2022)
# Structures can show the parent of a compound that is named as a salt.
# Experiments:
# NLRP3 [1] = biological target: T1, NLRP3 (Homo sapiens, UniProt Q96P20); assay: Human whole blood IL1β release assay; assay type: cell-based; parameters: Human whole blood in Li-heparin tubes was obtained from healthy donors; from tissue; host or cells: human whole blood from healthy donors, LPS-primed, nigericin-stimulated
# T1 sequence (Q96P20 whole entry): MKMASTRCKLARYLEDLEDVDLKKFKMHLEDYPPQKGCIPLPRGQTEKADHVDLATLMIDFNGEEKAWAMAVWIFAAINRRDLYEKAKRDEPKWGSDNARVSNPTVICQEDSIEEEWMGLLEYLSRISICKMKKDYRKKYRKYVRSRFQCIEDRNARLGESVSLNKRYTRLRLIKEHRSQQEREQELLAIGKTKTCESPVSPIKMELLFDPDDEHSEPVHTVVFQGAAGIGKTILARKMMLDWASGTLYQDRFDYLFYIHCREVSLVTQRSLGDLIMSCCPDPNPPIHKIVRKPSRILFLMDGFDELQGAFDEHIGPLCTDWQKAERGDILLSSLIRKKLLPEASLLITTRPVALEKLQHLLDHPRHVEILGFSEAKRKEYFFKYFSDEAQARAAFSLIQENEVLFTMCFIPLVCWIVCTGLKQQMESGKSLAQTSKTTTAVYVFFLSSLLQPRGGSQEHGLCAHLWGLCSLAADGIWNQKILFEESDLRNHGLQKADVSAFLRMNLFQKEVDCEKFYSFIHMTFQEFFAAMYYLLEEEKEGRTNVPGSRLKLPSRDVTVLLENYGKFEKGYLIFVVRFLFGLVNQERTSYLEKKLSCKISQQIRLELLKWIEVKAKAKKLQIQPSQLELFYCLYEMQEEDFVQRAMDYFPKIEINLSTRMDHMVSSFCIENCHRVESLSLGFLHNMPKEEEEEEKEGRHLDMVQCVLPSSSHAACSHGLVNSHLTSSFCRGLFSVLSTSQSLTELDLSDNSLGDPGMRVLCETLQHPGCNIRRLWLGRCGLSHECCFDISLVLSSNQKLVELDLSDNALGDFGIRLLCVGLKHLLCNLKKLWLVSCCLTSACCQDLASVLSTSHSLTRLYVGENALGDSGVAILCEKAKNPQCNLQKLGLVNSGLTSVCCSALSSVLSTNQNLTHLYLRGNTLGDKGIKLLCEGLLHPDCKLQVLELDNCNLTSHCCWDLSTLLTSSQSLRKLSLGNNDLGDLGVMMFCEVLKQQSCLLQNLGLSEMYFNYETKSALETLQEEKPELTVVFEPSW
# Procedure: Human Whole Blood IL1β Release Assay
# For systemic delivery, the ability to inhibit NLRP3 when the compounds are present within the bloodstream is of great importance. For this reason, the NLRP3 inhibitory activity of a number of compounds in human whole blood was investigated in accordance with the following protocol.
# Human whole blood in Li-heparin tubes was obtained from healthy donors from a volunteer donor panel. • 1. […] Incubate for 3 hrs at 37° C., 5% CO2 • 4. Add 10 μl Nigericin (Sigma # N7143) (10 μM FAC) to all wells • 5. Incubate for 1 hr at 37° C., 5% CO2 • 6. At the end of the incubation period, spin plates at 300×g for 5 mins to pellet cells and remove 20 μl of supernatant and add to 96-well v-bottom plates for IL-1β analysis (note: these plates containing the supernatants can be stored at −80° C. to be analysed at a later date) • 7. IL-1β was measured according to the manufacturer protocol (Perkin Elmer-AlphaLisa IL-1 Kit AL220E-5000) • 8. IC50 data is fitted to a non-linear regression equation (log inhibitor vs response-variable slope 4-parameters)
# NLRP3 [2] = biological target: T1, NLRP3; assay: THP-1 cells pyroptosis assay; assay type: cell-based; parameters: Seed THP-1 cells (25,000 cells/well) containing 1.0 μg/ml LPS; host or cells: THP-1 cells, LPS-primed, nigericin-stimulated; settings: for IC50: 1.0 μg/ml LPS, nigericin 5 μM, pyroptosis read with resazurin; for NLRP3 inhibitory activity (in words): THP-1 pyroptosis assay
# Procedure: The cells were routinely passaged and grown to confluency (˜10^6 cells/ml). On the day of the experiment, THP-1 cells were harvested and resuspended into RPMI medium (without FBS). The cells were then counted and viability (>90%) checked by Trypan blue (Sigma # T8154). […] To this diluted cell solution was added LPS (Sigma # L4524) to give a 1 μg/ml Final Assay Concentration (FAC). 40 μl of the final preparation was aliquoted into each well of a 96-well plate. The plate thus prepared was used for compound screening. THP-1 Cells Pyroptosis Assay The following method step-by-step assay was followed for compound screening. • 1. […] Add 5 μl nigericin (Sigma # N7143) (FAC 5 μM) to all wells • 5. […] At the end of the incubation period, spin plates at 300×g for 3 mins and remove supernatant • 7. Then add 50 μl of resazurin (Sigma # R7017) (FAC 100 μM resazurin in RPMI medium without FBS) and incubate plates for a further 1-2 hrs at 37° C. and 5% CO2 • 8. […] IC50 data is fitted to a non-linear regression equation (log inhibitor vs response-variable slope 4-parameters) [table]
# [3] = human whole blood, 1 μg/ml LPS, nigericin 10 μM, IL-1β release, read-out: HWB IC50
# [4] = THP-1 cells, read-out: THP IC50
Structure (SMILES),IC50 (NLRP3 [1]; [3]) [µM],IC50 (NLRP3 [2]; [4]) [µM],NLRP3 inhibitory activity (in words) (NLRP3 [2]),IC50 (NLRP3 [1]) [µM],"IC50 (NLRP3 [2]; THP IC50, THP-1 cells) [µM]"
"CC(C)c1cccc(C(C)C)c1NC(=O)NS(=O)(=O)c1cccnn1 [Example 7, N-((2,6-Diisopropylphenyl)carbamoyl)pyridazine-3-sulfonamide, Sodium Salt]",< 2.5,< 10,–,–,–
"COc1nccnc1S(=O)(=O)NC(=O)Nc1c2c(cc3c1CCC3)CCC2 [Example 8, N-((1,2,3,5,6,7-Hexahydro-s-indacen-4-yl)carbamoyl)-3-methoxypyrazine-2-sulfonamide, Potassium Salt]",< 5,< 0.8,–,–,–
"Nc1ncc(S(=O)(=O)NC(=O)Nc2c3c(cc4c2CCC4)CCC3)cn1 [Example 9, 2-Amino-N-((1,2,3,5,6,7-hexahydro-s-indacen-4-yl)carbamoyl) pyrimidine-5-sulfonamide, Potassium Salt]",< 2.5,< 2,–,–,–
"O=C(Nc1c2c(cc3c1CCC3)CCC2)NS(=O)(=O)c1cncnc1 [Example 10, N-((1,2,3,5,6,7-Hexahydro-s-indacen-4-yl)carbamoyl) pyrimidine-5-sulfonamide, Potassium Salt]",< 7.5,< 10,–,–,–
"Cc1ccnc(S(=O)(=O)NC(=O)Nc2c3c(cc4c2CCC4)CCC3)n1 [Example 17, N-((1,2,3,5,6,7-Hexahydro-s-indacen-4-yl)carbamoyl)-4-methyl pyrimidine-2-sulfonamide, Potassium Salt]",< 5,< 1.2,–,–,–
"Cc1cc(C)nc(S(=O)(=O)NC(=O)Nc2c3c(cc4c2CCC4)CCC3)n1 [Example 18, N-((1,2,3,5,6,7-Hexahydro-s-indacen-4-yl)carbamoyl)-4,6-dimethyl pyrimidine-2-sulfonamide, Potassium Salt]",< 2.5,< 0.8,highly active,–,–
"CN(C)c1cncc(S(=O)(=O)NC(=O)Nc2c3c(cc4c2CCC4)CCC3)n1 [Example 27, 6-(Dimethylamino)-N-((1,2,3,5,6,7-hexahydro-s-indacen-4-yl)carbamoyl)pyrazine-2-sulfonamide, Potassium Salt]",< 7.5,< 0.8,–,–,–
"CN(C)c1cncc(S(=O)(=O)NC(=O)Nc2c(-c3ccncc3)cc(F)c3c2CCC3)n1 [Example 37, 6-(Dimethylamino)-N-((7-fluoro-5-(pyridin-4-yl)-2,3-dihydro-1H-inden-4-yl)carbamoyl)pyrazine-2-sulfonamide]",< 2.5,< 0.8,–,–,–
"CC(C)c1cc(F)cc(-c2ccnc(C#N)c2)c1NC(=O)NS(=O)(=O)c1cnc(N(C)C)cn1 [Example 38, N-((2-(2-Cyanopyridin-4-yl)-4-fluoro-6-isopropylphenyl)carbamoyl)-5-(dimethylamino)pyrazine-2-sulfonamide]",< 2.5,< 0.8,–,–,–
"COc1cc(-c2ccc3c(c2NC(=O)NS(=O)(=O)c2cnc(N(C)C)cn2)CCC3)ccn1 [Example 40, 5-(Dimethylamino)-N-((5-(2-methoxypyridin-4-yl)-2,3-dihydro-1H-inden-4-yl)carbamoyl)pyrazine-2-sulfonamide]",< 2.5,< 0.8,–,–,–
"Cc1cc(C)nc(S(=O)(=O)NC(=O)Nc2c(-c3ccnc(C#N)c3)cc(F)cc2C(C)C)n1 [Example 46, N-((2-(2-Cyanopyridin-4-yl)-4-fluoro-6-isopropylphenyl)carbamoyl)-4,6-dimethylpyrimidine-2-sulfonamide]",< 2.5,< 0.8,highly active,–,–
"COc1cc(-c2cc(F)cc(C(C)C)c2NC(=O)NS(=O)(=O)c2nc(C)cc(C)n2)ccn1 [Example 47, N-((4-Fluoro-2-isopropyl-6-(2-methoxypyridin-4-yl)phenyl)carbamoyl)-4,6-dimethylpyrimidine-2-sulfonamide]",–,< 0.8,highly active,–,–
"COc1cc(-c2ccc3c(c2NC(=O)NS(=O)(=O)c2nc(C)cc(C)n2)CCC3)ccn1 [Example 48, N-((5-(2-Methoxypyridin-4-yl)-2,3-dihydro-1H-inden-4-yl)carbamoyl)-4,6-dimethylpyrimidine-2-sulfonamide]",< 2.5,< 0.8,highly active,–,–
"Cc1cc(C)nc(S(=O)(=O)NC(=O)Nc2c(-c3ccncc3)cc(F)c3c2CCC3)n1 [Example 49, N-((7-Fluoro-5-(pyridin-4-yl)-2,3-dihydro-1H-inden-4-yl)carbamoyl)-4,6-dimethylpyrimidine-2-sulfonamide]",< 2.5,< 0.8,highly active,–,–
"CC(C)c1cc(F)cc(-c2ccnc(C#N)c2)c1NC(=O)NS(=O)(=O)c1cc(N(C)C)cnn1 [Example 50, N-((2-(2-Cyanopyridin-4-yl)-4-fluoro-6-isopropylphenyl)carbamoyl)-5-(dimethylamino) pyridazine-3-sulfonamide]",< 2.5,< 0.8,–,–,–
"COc1cc(-c2cc(F)cc(C(C)C)c2NC(=O)NS(=O)(=O)c2cc(N(C)C)cnn2)ccn1 [Example 51, 5-(Dimethylamino)-N-((4-fluoro-2-isopropyl-6-(2-methoxypyridin-4-yl)phenyl)carbamoyl) pyridazine-3-sulfonamide]",–,–,–,< 2.5,< 0.8
"COc1cc(-c2ccc3c(c2NC(=O)NS(=O)(=O)c2cc(N(C)C)cnn2)CCC3)ccn1 [Example 52, 5-(Dimethylamino)-N-((5-(2-methoxypyridin-4-yl)-2,3-dihydro-1H-inden-4-yl)carbamoyl) pyridazine-3-sulfonamide]",< 2.5,< 0.8,–,–,–
"CN(C)c1cnnc(S(=O)(=O)NC(=O)Nc2c(-c3ccncc3)cc(F)c3c2CCC3)c1 [Example 53, 5-(Dimethylamino)-N-((7-fluoro-5-(pyridin-4-yl)-2,3-dihydro-1H-inden-4-yl)carbamoyl) pyridazine-3-sulfonamide]",< 2.5,< 0.8,–,–,–
"CN1CCN(c2cncc(S(=O)(=O)NC(=O)Nc3c4c(cc5c3CCC5)CCC4)n2)CC1 [Example 54, N-((1,2,3,5,6,7-Hexahydro-s-indacen-4-yl)carbamoyl)-6-(4-methylpiperazin-1-yl)pyrazine-2-sulfonamide, Potassium Salt]",–,< 2,–,–,–
"Cc1cc(N(C)C)nc(S(=O)(=O)NC(=O)Nc2c3c(cc4c2CCC4)CCC3)n1 [Example 56, 4-(Dimethylamino)-N-((1,2,3,5,6,7-hexahydro-s-indacen-4-yl)carbamoyl)-6-methylpyrimidine-2-sulfonamide, potassium salt]",–,< 0.8,highly active,–,–
"CC(C)c1cc(S(=O)(=O)NC(=O)Nc2c3c(cc4c2CCC4)CCC3)ccn1 [Example 57, N-((1,2,3,5,6,7-Hexahydro-s-indacen-4-yl)carbamoyl)-2-isopropylpyridine-4-sulfonamide, Sodium Salt]",–,< 0.8,–,–,–
"COc1cc(-c2ccc3c(c2NC(=O)NS(=O)(=O)c2ccc(CN(C)C)nc2)CCC3)ccn1 [Example 58, 6-((Dimethylamino)methyl)-N-((5-(2-methoxypyridin-4-yl)-2,3-dihydro-1H-inden-4-yl)carbamoyl)pyridine-3-sulfonamide]",< 2.5,< 0.8,–,–,–
"COc1cc(-c2ccc3c(c2NC(=O)NS(=O)(=O)c2ccnc(CN(C)C)c2)CCC3)ccn1 [Example 59, 2-((Dimethylamino)methyl)-N-((5-(2-methoxypyridin-4-yl)-2,3-dihydro-1H-inden-4-yl)carbamoyl)pyridine-4-sulfonamide, sodium salt]",< 2.5,< 0.8,–,–,–
"COc1cc(-c2ccc3c(c2NC(=O)NS(=O)(=O)c2ccnc(C(C)C)c2)CCC3)ccn1 [Example 60, 2-Isopropyl-N-((5-(2-methoxypyridin-4-yl)-2,3-dihydro-1H-inden-4-yl)carbamoyl)pyridine-4-sulfonamide, sodium salt]",< 2.5,< 0.8,–,–,–
